In ChEMBL document CHEMBL1143816, “Daptomycin produces an enhanced bactericidal activity compared to ceftriaxone, measured by [3H]choline release in the cerebrospinal fluid, in experimental meningitis due to a penicillin-resistant pneumococcal strain without lysing its cell wall” (2007) one finds MIC, log10CFU/ml and Activity data, which are given here for 5 molecules.

SMILES strings stand for the structures. In brackets after ≈: the same amount, converted by molar mass.

What all share (format): functional
Test [1] concerns Streptococcus pneumoniae. Briefly: Antimicrobial activity against Streptococcus pneumoniae WB4 by broth macrodilution method.
Test [2] concerns Streptococcus pneumoniae. In words: Antimicrobial activity in Streptococcus pneumoniae WB4 infected New Zealand white rabbit meningitis model assessed as decrease in viable cells in CSF at 15 mg/kg after 8 hrs.
In test [3] the test system is Streptococcus pneumoniae. In words: Antimicrobial activity in Streptococcus pneumoniae WB4 infected New Zealand white rabbit meningitis model assessed as increase in [3H]choline release in CSF at 15 mg/kg after 4 hrs.
In test [4] the test system is Streptococcus pneumoniae. In words: Antimicrobial activity in Streptococcus pneumoniae WB4 infected New Zealand white rabbit meningitis model assessed as decrease in viable cells in CSF at 125 mg/kg after 8 hrs.
Test [5] deals with Streptococcus pneumoniae. Briefly: Antimicrobial activity in Streptococcus pneumoniae WB4 infected New Zealand white rabbit meningitis model assessed as increase in [3H]choline release in CSF at 125 mg/kg after 4 to 6 hrs.

`CCCCCCCCCC(=O)N[C@@H](Cc1c[nH]c2ccccc12)C(=O)N[C@H](CC(N)=O)C(=O)N[C@@H](CC(=O)O)C(=O)N[C@@H]1C(=O)NCC(=O)N[C@@H](CCCN)C(=O)N[C@@H](CC(=O)O)C(=O)N[C@H](C)C(=O)N[C@@H](CC(=O)O)C(=O)NCC(=O)N[C@H](CO)C(=O)N[C@@H]([C@H](C)CC(=O)O)C(=O)N[C@@H](CC(=O)c2ccccc2N)C(=O)O[C@@H]1C` returned a minimal inhibitory concentration (MIC) with Streptococcus pneumoniae [1] of 0.06 µg/mL (≈ 0.037 µM). In addition, in the test with Streptococcus pneumoniae [2], the log10CFU/ml was -6.64. For the same molecule, the Activity in the test with Streptococcus pneumoniae [3] worked out at 250 cpm/min.
`CO/N=C(\C(=O)NC1C(=O)N2C(C(=O)O)=C(COC(C)=O)CS[C@H]12)c1csc(N)n1` (single isomer, unassigned) [CEFOTAXIME]: in the test with Streptococcus pneumoniae [1], the MIC was 1 µg/mL (≈ 2.2 µM).
Turning to `CO/N=C(\C(=O)N[C@@H]1C(=O)N2C(C(=O)O)=C(CSc3nc(=O)c(O)nn3C)CS[C@H]12)c1csc(N)n1` [CEFTRIAXONE], 0.5 µg/mL (≈ 0.902 µM) was the least that counted as inhibitory in the test with Streptococcus pneumoniae [1] (MIC). In addition, the log10CFU/ml in the test on Streptococcus pneumoniae [4] is recorded as -4.04. In addition, the Activity in the test on Streptococcus pneumoniae [5] stood at 2500 cpm/min.
`COc1c(N2C[C@@H]3CCCN[C@@H]3C2)c(F)cc2c(=O)c(C(=O)O)cn(C3CC3)c12` [MOXIFLOXACIN] yielded an MIC with Streptococcus pneumoniae [1] of 0.12 µg/mL (≈ 0.299 µM).
On the same count and under the same terms, the same measure for `CN[C@H](CC(C)C)C(=O)N[C@H]1C(=O)N[C@@H](CC(N)=O)C(=O)N[C@H]2C(=O)N[C@H]3C(=O)N[C@H](C(=O)N[C@H](C(=O)O)c4cc(O)cc(O)c4-c4cc3ccc4O)[C@H](O)c3ccc(c(Cl)c3)Oc3cc2cc(c3O[C@@H]2O[C@H](CO)[C@@H](O)[C@H](O)[C@H]2O[C@H]2C[C@](C)(N)[C@H](O)[C@H](C)O2)Oc2ccc(cc2Cl)[C@H]1O` [VANCOMYCIN]: 0.12 µg/mL (≈ 0.0828 µM).

The term MIC denotes the lowest concentration found to suppress growth. A higher MIC goes with a need for much substance.
